This is an account of results in ChEMBL document CHEMBL5252520, “Inhibition of phospho-MurNAc-pentapeptide translocase (MraY) by nucleoside natural product antibiotics, bacteriophage ϕX174 lysis protein E, and cationic antibacterial peptides” (Bioorg Med Chem, 2016).

Experiment [1] can be described thus: Inhibition of bacterial MraY. The arrangement: species or system Bacteria.
The target in experiment [2] is T1, Phospho-N-acetylmuramoyl-pentapeptide-transferase (Bacillus subtilis (strain 168), UniProt Q03521).
T1 sequence (Q03521 whole entry): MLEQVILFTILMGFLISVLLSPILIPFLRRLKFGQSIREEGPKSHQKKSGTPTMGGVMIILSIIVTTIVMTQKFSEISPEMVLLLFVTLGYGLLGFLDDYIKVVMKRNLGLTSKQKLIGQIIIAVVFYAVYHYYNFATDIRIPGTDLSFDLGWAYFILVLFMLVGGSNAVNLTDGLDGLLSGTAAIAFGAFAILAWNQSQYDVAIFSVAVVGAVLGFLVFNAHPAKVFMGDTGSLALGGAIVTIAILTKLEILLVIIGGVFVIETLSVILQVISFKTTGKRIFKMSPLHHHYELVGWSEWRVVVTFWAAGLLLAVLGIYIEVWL
Put plainly: Inhibition of Bacillus subtilis MraY.

The target in experiment [3] is T2, Decaprenyl-phosphate N-acetylglucosaminephosphotransferase (Mycolicibacterium smegmatis (strain ATCC 700084 / mc(2)155) (Mycobacteriumsmegmatis), UniProt A0R211).
T2 sequence (A0R211 whole entry): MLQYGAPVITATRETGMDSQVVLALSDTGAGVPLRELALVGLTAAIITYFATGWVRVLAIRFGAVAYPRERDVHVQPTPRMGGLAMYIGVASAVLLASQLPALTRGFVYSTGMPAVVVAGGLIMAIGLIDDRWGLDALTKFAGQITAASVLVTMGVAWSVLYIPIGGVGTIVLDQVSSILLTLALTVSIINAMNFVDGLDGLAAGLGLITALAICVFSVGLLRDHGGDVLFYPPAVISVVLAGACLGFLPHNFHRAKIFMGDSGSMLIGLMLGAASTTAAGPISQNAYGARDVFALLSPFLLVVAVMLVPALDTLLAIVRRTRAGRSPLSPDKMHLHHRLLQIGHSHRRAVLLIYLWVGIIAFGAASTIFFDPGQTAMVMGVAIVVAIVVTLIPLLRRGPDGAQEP
In words: Inhibition of Mycobacterium smegmatis ATCC 607 WecA.

Experiment [4] is described as follows: Inhibition of Bacillus subtilis TagO.
The next experiment deals with Pseudomonas aeruginosa. Put plainly: Antibacterial activity against Pseudomonas aeruginosa H103 assessed as reduction in bacterial growth. Type of experiment: functional.
The test system of experiment [5] is Escherichia coli. In words: Antibacterial activity against Escherichia coli assessed as reduction in bacterial growth. Format: functional.
Experiment [6] in a line: Inhibition of Campylobacter jejuni PgIC expressed in Escherichia coli by affinity chromatography.
In experiment [7] the target is T3, Phospho-N-acetylmuramoyl-pentapeptide-transferase (Escherichia coli, UniProt E2QF15).
T3 sequence (E2QF15 whole entry): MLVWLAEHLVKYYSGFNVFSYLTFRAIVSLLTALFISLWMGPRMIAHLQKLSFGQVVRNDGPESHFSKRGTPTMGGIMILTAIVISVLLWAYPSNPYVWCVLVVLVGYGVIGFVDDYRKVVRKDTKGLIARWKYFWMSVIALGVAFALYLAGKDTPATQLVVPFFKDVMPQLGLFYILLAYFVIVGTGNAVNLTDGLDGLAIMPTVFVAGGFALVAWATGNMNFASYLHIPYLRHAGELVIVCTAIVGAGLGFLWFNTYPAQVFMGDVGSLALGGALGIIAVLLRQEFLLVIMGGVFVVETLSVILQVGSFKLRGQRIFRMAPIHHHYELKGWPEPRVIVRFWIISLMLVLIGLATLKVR
In words: Inhibition of recombinant Escherichia coli MraY by fluorescence based analysis.

Experiment [8] relates to Escherichia coli. In words: Antibacterial activity against Escherichia coli assessed as inhibition of bacterial growth. Format: functional.

≈ marks a conversion by molar mass, not a printed value. Residues, ends and D or L forms follow the SMILES beside them.

Take `O=C(O)c1c(Cl)c(Cl)c(Cl)c(Cl)c1-c1c2cc(Br)c(=O)c(Br)c-2oc2c(Br)c(O)c(Br)cc12`: the IC50 is 32 µM in [1] and 850 µM in experiment [2].
In [1], `CC[C@H](C)[C@H](N)C(=O)N[C@@H](CC(C)C)C(=O)N1CCC[C@H]1C(=O)N[C@@H](Cc1c[nH]c2ccccc12)C(=O)N[C@@H](CCCCN)C(=O)N[C@@H](Cc1c[nH]c2ccccc12)C(=O)N1CCC[C@H]1C(=O)N[C@@H](Cc1c[nH]c2ccccc12)C(=O)N[C@@H](Cc1c[nH]c2ccccc12)C(=O)N1CCC[C@H]1C(=O)N[C@@H](Cc1c[nH]c2ccccc12)C(=O)N[C@@H](CCCN=C(N)N)C(=O)N[C@@H](CCCN=C(N)N)C(N)=O` returned a concentration for half-maximal inhibition (IC50) of 90 µM.
Turning to `CCCCc1ccc(NC(=O)C2=CCN(C)[C@@H]([C@H](O[C@@H]3O[C@H](CN)[C@@H](O)[C@H]3O)[C@H]3O[C@@H](n4ccc(=O)[nH]c4=O)[C@H](O)[C@@H]3O)C(=O)N2C)cc1`, the IC50 in experiment [3] is 0.0581 µM.
For the molecule `NC[C@H]1O[C@@H](O[C@@H](Cn2cc(CCCCCO)nn2)[C@H]2O[C@@H](n3ccc(=O)[nH]c3=O)[C@H](O)[C@@H]2O)[C@H](O)[C@@H]1O`, the IC50 in experiment [4] is 0.05 µg/mL (≈ 0.0922 µM).
In turn, `CO[C@@H]1[C@@H](OC)[C@H](C)O[C@@H](OC(=O)C[C@@H](C)CC(=O)O[C@@H](CCCCCCCCCCC(C)C)CC(=O)O[C@H]2CN(C)[C@@H]([C@H](O[C@@H]3O[C@H](CN)[C@@H](O)[C@H]3O)[C@H]3O[C@@H](n4ccc(=O)[nH]c4=O)[C@H](O)[C@@H]3O)C(=O)N(C)[C@@H]2C(=O)O)[C@@H]1OC` registered an IC50 in experiment [2] of 100 µM.
Take `CCCCCCCCOC(=O)[C@H](Cc1c[nH]c2ccccc12)NC(=O)[C@@H](N)CCCNC(=N)N`: the IC50 in [1] was more than 1000 µM. Moreover, the results for the MIC in the experiment with Pseudomonas aeruginosa and in the experiment on Escherichia coli [5] were 40 µg/mL (≈ 84.6 µM) and 31 µg/mL (≈ 65.6 µM), respectively.
As for `CC(C)C[C@H](NC(=O)[C@H](Cc1ccccc1)NC(=O)[C@@H]1CCCN1C(=O)[C@H](Cc1c[nH]c2ccccc12)NC(=O)[C@H](Cc1c[nH]c2ccccc12)NC(=O)[C@H](Cc1c[nH]c2ccccc12)NC(=O)[C@@H]1CCCN1C(=O)[C@H](Cc1ccccc1)NC(=O)[C@H](CCCNC(=N)N)NC(=O)[C@H](CCCNC(=N)N)NC(=O)[C@@H](N)C(C)C)C(=O)N[C@@H](CCCNC(=N)N)C(=O)N[C@@H](CCCNC(=N)N)C(=O)O`, the MIC with Pseudomonas aeruginosa was determined as 1 µg/mL (≈ 0.526 µM); with Escherichia coli [5], 20 µg/mL (≈ 10.5 µM).
Molecule `CCCCCCCCOC(=O)[C@H](Cc1c[nH]c2ccccc12)NC(=O)CN` yielded an IC50 in experiment [1] of 790 µM.
Take `CSCC[C@H](NC(=O)N[C@@H](Cc1cccc(O)c1)C(=O)O)C(=O)N[C@@H](C(=O)N/C=C1\C[C@@H](O)[C@H](n2ccc(=O)[nH]c2=O)O1)[C@H](C)N(C)C(=O)[C@@H](N)Cc1cccc(O)c1`: the IC50 in experiment [6] is 40 µM.
Regarding `CC(C)[C@H](NC(=O)N[C@H](C(=O)N[C@H](C(=O)NCCCN[C@@H](C[C@H]1O[C@@H](n2ccc(=O)[nH]c2=O)[C@H](O)[C@@H]1O)C(=O)O)[C@@H](O)C(C)C)[C@@H]1CCNC(=N)N1)C(=O)O`, the IC50 in experiment [7] came out at 2 µM.
For the molecule `CC(=O)N[C@@H](CCCNC(=N)N)C(=O)N[C@@H](CCCNC(=N)N)C(=O)N[C@@H](Cc1c[nH]c2ccccc12)C(=O)N[C@@H](Cc1c[nH]c2ccccc12)C(=O)N[C@@H](CS)C(=O)N[C@@H](Cc1ccccc1)C(=O)O` (Ac-RRWWCF-OH), the MIC in the experiment on Pseudomonas aeruginosa was found to be 45 µg/mL (≈ 45.2 µM); in the experiment on Escherichia coli [5], 20 µg/mL (≈ 20.1 µM).
As for `CSCC[C@H](NC(=O)[C@H](CCCNC(=N)N)NC(=O)[C@H](Cc1c[nH]c2ccccc12)NC(=O)[C@H](CCC(N)=O)NC(=O)[C@H](Cc1c[nH]c2ccccc12)NC(=O)[C@H](CCCNC(=N)N)NC(=O)[C@H](CCCNC(=N)N)NC(=O)[C@H](CS)NC(=O)[C@H](CCCCN)NC(=O)[C@@H](N)CCC(=O)O)C(=O)N[C@@H](CCCCN)C(=O)N[C@@H](CCCCN)C(=O)N[C@@H](CC(C)C)C(=O)NCC(=O)O` (H-EKCRRWQWRMKKLG-OH), the MIC in the experiment on Escherichia coli [5] was determined as 24 µg/mL (≈ 12.6 µM).
On the same count and under the same terms, under `CC(C)[C@H](NC(=O)[C@@H](NC(=O)[C@H](Cc1c[nH]c2ccccc12)NC(=O)[C@H](CCCNC(=N)N)NC(=O)[C@H](Cc1c[nH]c2ccccc12)NC(=O)[C@H](Cc1c[nH]c2ccccc12)NC(=O)[C@H](CCCCN)NC(=O)[C@H](Cc1c[nH]c2ccccc12)NC(=O)[C@H](Cc1c[nH]c2ccccc12)NC(=O)[C@H](CCCCN)NC(=O)CN)[C@@H](C)O)C(=O)N1CCC[C@H]1C(=O)N[C@@H](Cc1ccccc1)C(=O)O` (H-GKWWKWWRWTVPF-OH) stands 7 µg/mL (≈ 3.76 µM).
Regarding `CC(C)C[C@H](NC(=O)CNC(=O)[C@H](Cc1c[nH]c2ccccc12)NC(=O)CN)C(=O)N[C@@H](Cc1c[nH]c2ccccc12)C(=O)O` (H-GWGLW-OH), the 50% inhibitory concentration (IC50) in [1] was 209 µM.
For the molecule `CC[C@H](C)[C@H](N)C(=O)N[C@@H](CC(C)C)C(=O)N[C@@H](CCCNC(=N)N)C(=O)N[C@@H](Cc1c[nH]c2ccccc12)C(=O)N1CCC[C@H]1C(=O)N[C@@H](Cc1c[nH]c2ccccc12)C(=O)N[C@@H](Cc1c[nH]c2ccccc12)C(=O)N1CCC[C@H]1C(=O)N[C@@H](Cc1c[nH]c2ccccc12)C(=O)N[C@@H](CCCNC(=N)N)C(=O)N[C@@H](CCCNC(=N)N)C(=O)N[C@@H](CCCCN)C(=O)O` (H-ILRWPWWPWRRK-OH), 50 µM corresponded to half-maximal inhibition in [1] (IC50). Also, the minimum inhibitory concentration (MIC) was found to be 19 µg/mL (≈ 10.7 µM) in the experiment with Pseudomonas aeruginosa and 38 µg/mL (≈ 21.3 µM) with Escherichia coli [5].
`CC[C@H](C)[C@H](NC(=O)[C@H](CCCCN)NC(=O)[C@H](CCCCN)NC(=O)[C@H](Cc1ccccc1)NC(=O)[C@H](CC(C)C)NC(=O)[C@H](CCCCN)NC(=O)[C@H](Cc1c[nH]c2ccccc12)NC(=O)[C@@H](N)CCCCN)C(=O)N[C@@H](CCC(=O)O)C(=O)N[C@@H](CCCCN)C(=O)O` (H-KWKLFKKIEK-OH): the MIC was determined as 5 µg/mL (≈ 3.71 µM) in the experiment with Pseudomonas aeruginosa and 1 µg/mL (≈ 0.742 µM) in the experiment with Escherichia coli [5].
The molecule `CSCC[C@H](N)C(=O)N[C@H](C(=O)N[C@@H](CCCNC(=N)N)C(=O)N[C@@H](Cc1c[nH]c2ccccc12)C(=O)N[C@H](C(=O)N[C@@H](CC(C)C)C(=O)N[C@@H](Cc1c[nH]c2ccccc12)C(=O)N[C@@H](CC(=O)O)C(=O)N[C@H](C(=O)N[C@@H](CC(C)C)C(=O)N[C@@H](C)C(=O)N[C@@H](Cc1ccccc1)C(=O)N[C@@H](CC(C)C)C(=O)N[C@@H](CC(C)C)C(=O)N[C@@H](CC(C)C)C(=O)O)[C@@H](C)O)[C@@H](C)O)C(C)C` (H-MVRWTLWDTLAFLLL-OH) showed an IC50 in experiment [1] of 0.8 µM.
`CC(C)C[C@H](NC(=O)CNC(=O)CNC(=O)[C@@H](N)CCCNC(=N)N)C(=O)N[C@@H](Cc1c[nH]c2ccccc12)C(=O)O` (H-RGGLW-OH): half-maximal inhibition in experiment [1] (IC50) was put at 210 µM.
In the case of `CC[C@H](C)[C@H](NC(=O)[C@H](Cc1c[nH]c2ccccc12)NC(=O)[C@@H](NC(=O)[C@@H](NC(=O)[C@H](Cc1c[nH]c2ccccc12)NC(=O)[C@H](CCCNC(=N)N)NC(=O)[C@@H](N)CCCNC(=N)N)[C@@H](C)CC)C(C)C)C(=O)N[C@@H](CCCNC(=N)N)C(=O)O` (H-RRWIVWIR-OH), the MIC in the experiment on Escherichia coli [8] was 2 µg/mL (≈ 1.69 µM); in the experiment with Pseudomonas aeruginosa, 8 µg/mL (≈ 6.75 µM).
With `N=C(N)NCCC[C@H](N)C(=O)N[C@@H](Cc1c[nH]c2ccccc12)C(=O)NCC(=O)NCC(=O)N[C@@H](Cc1c[nH]c2ccccc12)C(=O)O` (H-RWGGW-OH), in experiment [1], half-maximal inhibition (IC50) required 233 µM.
Same read-out and setting: with `CC(C)C[C@H](NC(=O)CNC(=O)[C@H](Cc1c[nH]c2ccccc12)NC(=O)[C@@H](N)CCCNC(=N)N)C(=O)NCC(=O)O` (H-RWGLG-OH) the figure was 274 µM.
For `CC[C@H](C)[C@H](NC(=O)[C@H](CCCNC(=N)N)NC(=O)[C@H](Cc1c[nH]c2ccccc12)NC(=O)[C@@H](NC(=O)[C@@H](NC(=O)[C@H](CC(C)C)NC(=O)[C@H](Cc1c[nH]c2ccccc12)NC(=O)[C@H](CCCNC(=N)N)NC(=O)[C@H](CCC(N)=O)NC(=O)[C@@H](N)C(C)C)[C@@H](C)CC)C(C)C)C(=O)N[C@@H](CCCNC(=N)N)C(=O)N[C@@H](CCCCN)C(=O)O` (H-VQRWLIVWRIRK-OH), the minimal inhibitory concentration (MIC) in the experiment with Escherichia coli [8] amounted to 8 µg/mL (≈ 4.84 µM). For the same molecule, the half-maximal inhibitory concentration (IC50) in experiment [1] came out at 75 µM.

For orientation: IC50 means the concentration that gives 50% inhibition. A word on the MIC: it is the least concentration at which growth counts as inhibited.
